Test results from US20030175319A1, “Method for controlling termite” (SUMITOMO CHEMICAL COMPANY, LIMITED, priority 2002, published 2003).

What was measured:
[1] = system: Formosan subterranean termites (Coptotermes formosanus); test: Test Example 1: mortality of termites released in a plastic cup with the sheet formulation; format: in vivo; conditions: for Mortality (%): 2.5 g sheet formulation, 100 termites
Experimental: The sheet formulation obtained in Formulation example 1 or 2 (2.5 g) was put in a plastic cup (8.5 cm in diameter). The plastic cup was set inside a large cup having wet cotton for supplying moisture and 100 Formosan subterranean termites (Coptotermes formosanus) were released in the plastic cup. After 2, 4 and 8 weeks, the mortality of the termites was observed. Further, the same sheet formulation as Formulation example 2 except that hexaflumuron was used in place of bistrifluron was tested for reference.

[2] = system: Formosan subterranean termites; test: Test Example 2: field test, sheet formulation buried at tree stumps damaged by termites; format: in vivo, Coptotermes formosanus; conditions: conclusion from Table 2
Excerpt: In a place termites inhabit, two tree stumps (A and B) damaged by Formosan subterranean termites were found. The distance between A and B is about 500 m. Two wooden blocks (φ75 mm×78 mm) were buried near A and B, respectively.
After all the wooden blocks were damaged by the termites, each of about 60 g of the sheet formulation obtained in Formulation example 2 was buried in place of the damaged wooden blocks at A. On the other hand, the same sheet formulation as Formulation example 2 except that hexaflumuron was used in place of bistrifluron was used at B. Further, two of the sheet formulation were added at A and B respectively, after two weeks. […]
Soldiers are usually in their colony. At emergency, soldiers are observed.

Compound	Mortality (%) ([1]; after 2 weeks)	Mortality (%) ([1]; after 4 weeks)	Mortality (%) ([1]; after 8 weeks)	rapidity of efficacy compared with hexaflumuron ([1]; conclusion from Table 1)	rapidity of efficacy compared with hexaflumuron [2]
O=C(NC(=O)c1c(F)cccc1F)Nc1cc(Cl)c(OC(F)(F)C(F)F)c(Cl)c1 [Hexaflumuron, 1-[3,5-dichloro-4-(1,1,2,2-tetrafluoroethoxy)phenyl]-3-(2,6-difluorobenzoyl)urea]	5%	34%	100%	–	–
O=C(NC(=O)c1c(F)cccc1F)Nc1cc(C(F)(F)F)cc(C(F)(F)F)c1Cl [bistrifluron, N-[2-chloro-3,5-bis(trifluoromethyl)phenyl]-N′-(2,6-difluorobenzoyl)urea]	–	–	–	more rapid efficacy than hexaflumuron	more rapid efficacy than hexaflumuron
